The record followed here is US12594280B2, “Antiviral compositions for treating the flu” (UNIVERSITE CLAUDE BERNARD LYON 1, priority 2015, dated 2026).

Series [1] concerns H1N1 pdm09 virus. As to the kind of experiment: in vivo antiviral effect, treatment started before H1N1 infection of mice. The conditions noted are these: B57BL/6 mice, gavage on Day-1, day of and 3 days following infection. The procedure: B57BL/6 mice (age 7-8 weeks) are treated by gavage before (Day-1), the day of, and 3 days following infection with H1N1 pdm09 virus, according to the protocol shown diagrammatically in FIG. 5A.
The following parameters are evaluated over time: • FIG. 5B: Survival rate over time, up to 14 days post-infection; • FIG. 5C: Weight loss and gain observed over time; • FIG. 5D: Viral titer in the lungs of infected and treated mice.

Series [2] has as its system H1N1 pdm09 virus. The experiment in a line: in vivo antiviral effect, treatment 24 hours after H1N1 infection of mice. The conditions noted are these: B57BL/6 mice, gavage, treatment 24 hours after infection, up to 14 days post-infection. The procedure: B57BL/6 mice (age 7-8 weeks) are treated by gavage after infection with H1N1 pdm09 virus, according to the protocol shown diagrammatically in FIG. 6A. Survival rate over time is measured for infected mice receiving no treatment (FIG. 6B); treated with oseltamivir (FIG. 6C); and treated with diltiazem (FIG. 6D). The survival rate of mice treated with oseltamivir, and of those treated with diltiazem, is 100%.

Series [3] concerns H1N1 pdm09 virus (A/Pdm/09). The series is classed as cell-based, human influenza A virus.
A short description of series [4]: in vivo evaluation in mice of toxicity (change in weight). The conditions noted are these: gavage; oseltamivir 10 mg/kg/day, etilefrine 3 mg/kg/day, diltiazem 90 mg/kg/day. Here is the method:
FIG. 4. In vivo evaluation of the toxicity of the following molecules: oseltamivir, monensin, diltiazem, etilefrine and isoxicam. The “Saline” control indicates the weight of mice treated with PBS. The curve represents the change in weight (weight gain/loss expressed as a percentage) of the various groups of mice over time.
The “Saline” control denotes untreated mice, having been treated with PBS.
The following daily amounts were administered by gavage to the mice: • oseltamivir: 10 mg/kg/day • etilefrine: 3 mg/kg/day • diltiazem: 90 mg/kg/day

The next series has as its system influenza H1N1 pdm09. Format: cell-based, influenza virus.
Series [5] relates to H1N1 pdm09 virus. The series is classed as cell-based, human influenza A virus.
Series [6] relates to A/Moscow/10/99 (H3N2) strain. The series is classed as cell-based, human influenza A virus. The conditions noted are these: A549 cells, FIG. 2.
Another series concerns H1N1 pdm09. The series is classed as cell-based, human influenza A virus.

Where two headings read alike, the source gives them in different places.

For the compound `COc1ccc([C@@H]2Sc3ccccc3N(CCN(C)C)C(=O)[C@@H]2OC(C)=O)cc1` [diltiazem], the “survival at 14 days” value in the series on H1N1 pdm09 virus [1] was determined as 90%. The compound further yielded a survival rate in the series on H1N1 pdm09 virus [2] of 100%. The normalized virus production result in series [3] was “significant decrease”. Further, the “virus production, comparison of the conditions” value in series [3] (diltiazem alone at 9 nM, FIG. 3B) is given as “best results”. The “toxicity (change in weight of the mice)” value in series [4] is on record as “clearly nontoxic”. Also, the “antiviral effect on virus production” value with influenza H1N1 pdm09 (diltiazem 9 μM) is given as “no significant antiviral affect”; in the series with influenza H1N1 pdm09 (diltiazem 90 μM, compared with oseltamivir 1 μM) it was “comparable antiviral effect”. The “decrease of relative viral titer / virus production relative to the control value” in the series on H1N1 pdm09 virus [5] is given as “about 20%”.
As for `CCNCC(O)c1cccc(O)c1` (stereo not drawn) [etilefrine], in the series with H1N1 pdm09 virus [1], the “survival at 14 days” value was 70%. Besides, in series [3], the normalized virus production entry is listed as “significant decrease”. In series [4], the “toxicity (change in weight of the mice)” value was “clearly nontoxic”. Further, in series [6], the antiviral effects result was “significant from the lowest concentration tested” and the “concentration that completely inhibits virus production” value stood at 0.018 µM.
On to `CC(=O)O[C@H]1C[C@H](O[C@H]2[C@@H](O)C[C@H](O[C@H]3[C@@H](O)C[C@H](O[C@H]4CC[C@@]5(C)[C@H](CC[C@@H]6[C@@H]5C[C@@H](O)[C@]5(C)[C@@H](C7=CC(=O)OC7)CC[C@]65O)C4)O[C@@H]3C)O[C@@H]2C)O[C@H](C)[C@H]1O[C@@H]1O[C@H](CO)[C@@H](O)[C@H](O)[C@H]1O` [lanatoside C], for which, in series [3], the normalized virus production entry is given as “did not make it possible to confirm the antiviral activity”.
Turning to `CC[C@@]1([C@@H]2O[C@@H]([C@H]3O[C@@](O)(CO)[C@H](C)C[C@@H]3C)C[C@@H]2C)CC[C@H]([C@]2(C)CC[C@]3(C[C@H](O)[C@@H](C)[C@@H]([C@@H](C)[C@@H](OC)[C@H](C)C(=O)O)O3)O2)O1` [monensin], the normalized virus production entry in series [3] is given as “significant decrease”. The “decrease of virus production relative to the control value” in the series on H1N1 pdm09 virus [5] is “about 72%”.
With `CCOC(=O)C1=C[C@@H](OC(CC)CC)[C@H](NC(C)=O)[C@@H](N)C1` [oseltamivir], in the series on H1N1 pdm09 virus [1], the “survival at 14 days” value worked out at 60%. In addition, the survival rate in the series on H1N1 pdm09 virus [2] is 100%. Moreover, in series [3] (oseltamivir alone, FIGS. 3A and 3B), the “virus production decreased to” value is “about 40%”. In series [4], the “toxicity (change in weight of the mice)” value was “highest cell toxicity”. Also, in the series on influenza H1N1 pdm09, the “decrease of virus production relative to the control value” is reported as “up to 3 log 10”. The “antiviral effect on virus production” value in the series on influenza H1N1 pdm09 (oseltamivir 0.1 μM) is “no significant antiviral affect”. For the same compound, in the series on H1N1 pdm09 virus [5], the “virus production decreased to a value relative to the control value” is listed as “about 55%”. The entries for the “Dose Oseltamivir” value in the series on H1N1 pdm09 (Fa = 0.90 (90%)), with H1N1 pdm09 (Fa = 0.95 (95%)) and with H1N1 pdm09 (Fa = 0.97 (97%)) were 7.50797 µM, 62.435 µM and 281.813 µM, respectively.
For `NC(=O)c1ncn([C@@H]2O[C@H](CO)[C@@H](O)[C@H]2O)n1` [ribavirin], the normalized virus production result in series [3] is “significant decrease”.
